Data as given in patent US7704995B2 (Exelixis, Inc., priority 2003, dated 2010).

What follows are molecules tested against T1, Chk1 (Homo sapiens, UniProt O14757) (assay: Chk1 kinase assay: incorporation of γ-33P ATP into immobilized myelin basic protein). Conditions: Table 11; Chk1 only; read-out: Chk1 IC50.
T1 construct: purchased Upstate Biotechnology
T1 sequence (O14757 1-476): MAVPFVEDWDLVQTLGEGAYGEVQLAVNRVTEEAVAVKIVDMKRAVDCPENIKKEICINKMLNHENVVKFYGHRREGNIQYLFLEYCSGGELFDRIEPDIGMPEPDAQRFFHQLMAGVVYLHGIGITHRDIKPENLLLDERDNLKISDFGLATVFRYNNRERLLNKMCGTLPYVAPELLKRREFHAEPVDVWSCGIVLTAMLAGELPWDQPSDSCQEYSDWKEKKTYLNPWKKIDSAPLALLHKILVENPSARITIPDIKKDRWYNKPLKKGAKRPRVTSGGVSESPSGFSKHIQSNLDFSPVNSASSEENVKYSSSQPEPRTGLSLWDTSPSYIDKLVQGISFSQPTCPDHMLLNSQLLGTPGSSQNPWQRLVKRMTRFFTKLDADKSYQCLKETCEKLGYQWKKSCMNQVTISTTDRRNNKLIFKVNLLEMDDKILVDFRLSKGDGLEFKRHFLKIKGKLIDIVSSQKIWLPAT
Type: biochemical
Outline: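 Immobilized-MBP radiometric kinase assay, room temperature for 1 h; ATP 10 μM (Chk1, 10 nM enzyme) or 30 μM (Chk2, 20 nM enzyme) with 33P tracer. Values are IC50s, with Ki derived from them.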

IC50 [nM] | SMILES
50 to 1000 | Nc1ncc(-c2cccc(C(=O)NCc3c(F)cccc3Cl)c2)nc1C(=O)N[C@H]1CCNC1 [Example 746, 3-amino-6-[3-({[(2-chloro-6-fluorophenyl)methyl]amino}carbonyl)phenyl]-N-[(3S)-pyrrolidin-3-yl]pyrazine-2-carboxamide]
< 50 | CSc1ccc(CNC(=O)c2cccc(-c3cnc(N)c(C(=O)N[C@H]4CCNC4)n3)c2)cc1 [Example 747, 3-amino-6-{3-[({[4-(methylthio)phenyl]methyl}amino)carbonyl]phenyl}-N-[(3S)-pyrrolidin-3-yl]pyrazine-2-carboxamide]
1000 to 10000 | N=C(NNc1ccncc1)c1nc(-c2cccc(C(=O)N[C@@H]3CCc4ccccc43)c2)cnc1N [Example 748, 3-{5-amino-6-[imino(2-pyridin-4-ylhydrazino)methyl]pyrazin-2-yl}-N-[(1R)-2,3-dihydro-1H-inden-1-yl]benzamide]
≥ 10000 | CCn1nc(-c2nc(-c3cccc(C(=O)N[C@H]4CCc5ccccc54)c3)cnc2N)nc1[C@@H]1CCCN(C(=O)OCc2ccccc2)C1 [Example 749, phenylmethyl (3R)-3-{3-[3-amino-6-(3-{[(1S)-2,3-dihydro-1H-inden-1-ylamino]carbonyl}phenyl)pyrazin-2-yl]-1-ethyl-1H-1,2,4-triazol-5-yl}piperidine-1-carboxylate]
50 to 1000 | CNC(=O)c1nc(-c2cccc([C@H](C)N[C@H]3CCc4ccccc43)c2)cnc1N [Example 750, 3-amino-6-(3-{(1S)-1-[(1S)-2,3-dihydro-1H-inden-1-ylamino]ethyl}phenyl)-N-methylpyrazine-2-carboxamide]
50 to 1000 | Nc1ncc(-c2cccc(C(=O)N[C@@H]3c4ccccc4C[C@@H]3O)c2)nc1C(=O)NCCc1c[nH]cn1 [Example 751, 3-amino-6-[3-({[(1R,2S)-2-hydroxy-2,3-dihydro-1H-inden-1-yl]amino}carbonyl)phenyl]-N-[2-(1H-imidazol-4-yl)ethyl]pyrazine-2-carboxamide]
≥ 10000 | CC(C)(C)OC(=O)N1CC[C@@H](CNC(=O)c2nc(-c3cccc(C(=O)N[C@H]4CCc5ccccc54)c3)cnc2N)C1 [Example 752, 1,1-dimethylethyl (3S)-3-[({[3-amino-6-(3-{[(1S)-2,3-dihydro-1H-inden-1-ylamino]carbonyl}phenyl)pyrazin-2-yl]carbonyl}amino)methyl]pyrrolidine-1-carboxylate]
< 50 | Nc1ncc(-c2cccc(C(=O)N[C@H]3CCc4ccccc43)c2)nc1C(=O)NC[C@@H]1CCNC1 [Example 753, 3-amino-6-(3-{[(1S)-2,3-dihydro-1H-inden-1-ylamino]carbonyl}phenyl)-N-[(3R)-pyrrolidin-3-ylmethyl]pyrazine-2-carboxamide]
1000 to 10000 | Cn1nc(-c2nc(-c3cccc(C(=O)N[C@H]4CCc5ccccc54)c3)cnc2N)nc1[C@@H]1CCCN(C(=O)OCc2ccccc2)C1 [Example 754, phenylmethyl (3R)-3-{3-[3-amino-6-(3-{[(1S)-2,3-dihydro-1H-inden-1-ylamino]carbonyl}phenyl)pyrazin-2-yl]-1-methyl-1H-1,2,4-triazol-5-yl}piperidine-1-carboxylate]
< 50 | Nc1ncc(-c2cccc(C(=O)N[C@H]3CCc4ccccc43)c2)nc1-c1nnc([C@H]2CCCNC2)[nH]1 [Example 755, 3-(5-amino-6-{5-[(3S)-piperidin-3-yl]-4H-1,2,4-triazol-3-yl}pyrazin-2-yl)-N-[(1S)-2,3-dihydro-1H-inden-1-yl]benzamide]
1000 to 10000 | CC(C)(C)OC(=O)N1CC[C@H](NC(=O)c2nc(-c3cccc(C(=O)NCc4ccccn4)c3)cnc2N)C1 [Example 757, 1,1-dimethylethyl (3S)-3-({[3-amino-6-(3-{[(pyridin-2-ylmethyl)amino]carbonyl}phenyl)pyrazin-2-yl]carbonyl}amino)pyrrolidine-1-carboxylate]
1000 to 10000 | CC(C)(C)OC(=O)N1CC[C@H](NC(=O)c2nc(-c3cccc(C(=O)NCc4cccnc4)c3)cnc2N)C1 [Example 758, 1,1-dimethylethyl (3S)-3-({[3-amino-6-(3-{[(pyridin-3-ylmethyl)amino]carbonyl}phenyl)pyrazin-2-yl]carbonyl}amino)pyrrolidine-1-carboxylate]
1000 to 10000 | CC(C)(C)OC(=O)N1CC[C@H](NC(=O)c2nc(-c3cccc(C(=O)NC4CCOc5ccccc54)c3)cnc2N)C1 (stereo partly drawn) [Example 759, 1,1-dimethylethyl (3S)-3-{[(3-amino-6-{3-[(3,4-dihydro-2H-chromen-4-ylamino)carbonyl]phenyl}pyrazin-2-yl)carbonyl]amino}pyrrolidine-1-carboxylate]
< 50 | Nc1ncc(-c2cccc(C(=O)NCc3ccc(Cl)cc3)c2)nc1C(=O)N[C@H]1CCNC1 [Example 760, 3-amino-6-[3-({[(4-chlorophenyl)methyl]amino}carbonyl)phenyl]-N-[(3S)-pyrrolidin-3-yl]pyrazine-2-carboxamide]
50 to 1000 | Nc1ncc(-c2cccc(C(=O)NCc3ccccn3)c2)nc1C(=O)N[C@H]1CCNC1 [Example 761, 3-amino-6-(3-{[(pyridin-2-ylmethyl)amino]carbonyl}phenyl)-N-[(3S)-pyrrolidin-3-yl]pyrazine-2-carboxamide]
1000 to 10000 | CNC(=O)c1nc(-c2cc(C(=O)OC)cc(C(=O)OC)c2)cnc1N [Example 763, dimethyl 5-{5-amino-6-[(methylamino)carbonyl]pyrazin-2-yl}benzene-1,3-dicarboxylate]
< 50 | Nc1ncc(-c2cccc(C(=O)N[C@H]3CCc4ccccc43)c2)nc1C(=O)N[C@@H]1CCCNC1 [Example 765, 3-amino-6-(3-{[(1S)-2,3-dihydro-1H-inden-1-ylamino]carbonyl}phenyl)-N-[(3R)-piperidin-3-yl]pyrazine-2-carboxamide]
< 50 | Nc1ncc(-c2cccc(C(=O)N[C@@H]3c4ccccc4C[C@@H]3O)c2)nc1C(=O)NC1CCCNC1 (stereo partly drawn) [Example 766, 3-amino-6-[3-({[(1R,2S)-2-hydroxy-2,3-dihydro-1H-inden-1-yl]amino}carbonyl)phenyl]-N-piperidin-3-ylpyrazine-2-carboxamide]
50 to 1000 | Nc1ncc(-c2cccc(C(=O)N[C@H]3CCc4ccccc43)c2)nc1C(=O)NCCc1c[nH]cn1 [Example 767, 3-amino-6-(3-{[(1S)-2,3-dihydro-1H-inden-1-ylamino]carbonyl}phenyl)-N-[2-(1H-imidazol-4-yl)ethyl]pyrazine-2-carboxamide]
50 to 1000 | Nc1ncc(-c2cccc(C(=O)N[C@H]3CCc4ccccc43)c2)nc1C(=O)NC1CCCNCC1 (stereo partly drawn) [Example 768, 3-amino-N-azepan-4-yl-6-(3-{[(1S)-2,3-dihydro-1H-inden-1-ylamino]carbonyl}phenyl)pyrazine-2-carboxamide]
≥ 10000 | CC(C)(C)OC(=O)N1CC[C@@H](CNC(=O)c2nc(-c3cccc(C(=O)N[C@@H]4c5ccccc5C[C@@H]4O)c3)cnc2N)C1 [Example 769, 1,1-dimethylethyl (3S)-3-{[({3-amino-6-[3-({[(1R,2S)-2-hydroxy-2,3-dihydro-1H-inden-1-yl]amino}carbonyl)phenyl]pyrazin-2-yl}carbonyl)amino]methyl}pyrrolidine-1-carboxylate]
≥ 10000 | CC(C)(C)OC(=O)N1CCCC(NC(=O)c2nc(-c3cccc(C(=O)N[C@H]4CCc5ccccc54)c3)cnc2N)CC1 (stereo partly drawn) [Example 770, 1,1-dimethylethyl 4-({[3-amino-6-(3-{[(1S)-2,3-dihydro-1H-inden-1-ylamino]carbonyl}phenyl)pyrazin-2-yl]carbonyl}amino)azepane-1-carboxylate]
1000 to 10000 | Nc1ncc(-c2cccc(C(=O)N[C@H]3CCc4ccccc43)c2)nc1-c1n[nH]c(CCOCc2ccccc2)n1 [Example 771, 3-[5-amino-6-(5-{2-[(phenylmethyl)oxy]ethyl}-1H-1,2,4-triazol-3-yl)pyrazin-2-yl]-N-[(1S)-2,3-dihydro-1H-inden-1-yl]benzamide]
50 to 1000 | CNC(=O)c1nc(-c2ccc(F)c(C(=O)N[C@H]3CCc4ccccc43)c2)cnc1N [Example 772, 3-amino-6-(3-{[(1S)-2,3-dihydro-1H-inden-1-ylamino]carbonyl}-4-fluorophenyl)-N-methylpyrazine-2-carboxamide]
50 to 1000 | Nc1ncc(-c2cccc(C(=O)N[C@H]3CCc4ccccc43)c2)nc1-c1nc(C2CCCNC2)n(-c2ccccc2)n1 (stereo partly drawn) [Example 773, 3-[5-amino-6-(1-phenyl-5-piperidin-3-yl-1H-1,2,4-triazol-3-yl)pyrazin-2-yl]-N-[(1S)-2,3-dihydro-1H-inden-1-yl]benzamide]
1000 to 10000 | N=C(N)c1nc(-c2cccc(C(=O)N[C@H]3CCc4ccccc43)c2)cnc1N [Example 774, 3-{5-amino-6-[amino(imino)methyl]pyrazin-2-yl}-N-[(1S)-2,3-dihydro-1H-inden-1-yl]benzamide]
< 50 | Nc1ncc(-c2cccc(C(=O)N[C@@H]3c4ccccc4C[C@@H]3O)c2)nc1-c1nnc([C@H]2CCCNC2)[nH]1 [Example 775, 3-(5-amino-6-{5-[(3S)-piperidin-3-yl]-4H-1,2,4-triazol-3-yl}pyrazin-2-yl)-N-[(1R,2S)-2-hydroxy-2,3-dihydro-1H-inden-1-yl]benzamide]
